# Reference: patent US20130303565A1 (priority 2012, published 2013)
# Legend:
# [1] = tested on: U937 (monocytic leukemia cells); test: Cell proliferation assay (Trypan Blue dye exclusion), U937; format: cell-based; settings: each leukemic cell line incl. U937, tritoqualine 10^-5-10^-8 M, 72 hr
# Procedure: (§1) U937 (monocytic leukemia cells), and HL-60 (human promyelocytic cells) and TF1 (Human erythro leukemia cells) were obtained from cell bank of Necker. HL-60, U937 and TF1 were maintained. in RPMI-1640 medium supplemented with 10% FCS, 100 U/mL penicillin, and 100 μg/mL streptomycin. These cells were cultured in an incubator containing humidified air with 5% CO2 at […].
# (§2) HL60, U937, TF1 cells (5×10^5 cells/mL) in conditioning medium were cultured with various concentrations of tritoqualine (10^−5-10^−8 M) in the presence or absence of G-CSF (50 ng/mL) in 6-well flat-bottomed plates for 72 hr. Cell proliferation assay and viability examination were performed using the Trypan Blue dye exclusion method. All experiments were performed in triplicate.
# (§3) The maximum effect is on TF1 cells line. The inhibition is about 85%. The effect on HL60 is only 60% of inhibition. This effect dose is equivalent to the dose of 200 mg to 2000 mg of tritoqualine in human. This effect on leukemia clone is very surprising because tritoqualine is a molecule with low toxicity.
# [2] = biological target: histamine H4 (Homo sapiens, UniProt Q9H3N8); test: Histamine H4 agonist activity
# histamine H4, sequence (Q9H3N8 whole entry): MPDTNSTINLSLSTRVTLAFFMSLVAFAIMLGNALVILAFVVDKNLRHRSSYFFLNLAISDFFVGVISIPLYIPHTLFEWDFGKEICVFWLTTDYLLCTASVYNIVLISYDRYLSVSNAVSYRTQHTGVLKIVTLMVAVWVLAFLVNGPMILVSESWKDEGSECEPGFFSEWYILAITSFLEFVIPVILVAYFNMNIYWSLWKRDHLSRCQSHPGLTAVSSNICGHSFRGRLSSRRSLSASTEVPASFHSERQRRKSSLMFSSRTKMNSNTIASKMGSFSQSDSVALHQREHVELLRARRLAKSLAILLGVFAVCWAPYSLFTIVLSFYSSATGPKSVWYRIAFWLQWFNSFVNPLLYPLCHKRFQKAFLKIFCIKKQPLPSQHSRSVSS
# [3] = tested on: HL-60 (human promyelocytic cells); test: Cell proliferation assay (Trypan Blue dye exclusion), HL60; format: cell-based; settings: tritoqualine 10^-5-10^-8 M, 72 hr, with or without G-CSF 50 ng/mL
# Procedure: as §1, §2, §3
# [4] = tested on: TF1 (Human erythro leukemia cells); test: Cell proliferation assay (Trypan Blue dye exclusion), TF1; format: cell-based; settings: tritoqualine 10^-5-10^-8 M, 72 hr, with or without G-CSF 50 ng/mL
# Procedure: as §1, §2, §3
# [5] = tested on: Bcr-Abl tyrosine kinase; settings: inhibiting activity of the Bcr-Abl tyrosine kinase and proliferation, versus imatinib; cited from earlier work
SMILES,inhibition of proliferation and viability (in words) [1],histamine H4 activity (in words) [2],inhibition of proliferation and viability [3],inhibition of proliferation and viability (maximum effect) [4],potency relative to imatinib [5]
"CCOc1c(N)c2c(c(OCC)c1OCC)C(C1c3c(cc4c(c3OC)OCO4)CCN1C)OC2=O (centres unmarked) [tritoqualine, 7-Amino-4,5,6-triethoxy-3-(5,6,7,8-tetrahydro-4-methoxy-6-methyl-1,3-dioxolo[4,5-g]isoquinolin-5-yl) phthalide]",dose-dependently inhibited proliferation and viability,histamine H4 agonist,60%,about 85%,
Cc1cn(-c2cc(NC(=O)c3ccc(C)c(Nc4nccc(-c5cccnc5)n4)c3)cc(C(F)(F)F)c2)cn1 [Nilotinib],,,,,10-30 fold
